Results reported in patent publication US10407422B2, “Triazolopyridine inhibitors of myeloperoxidase” (priority 2015, dated 2019).

Key:
Format in all cases: biochemical
myeloperoxidase (MPO) [1] = target: T1, myeloperoxidase (MPO) (Homo sapiens (Human), UniProt P05164); assay: MPO peroxidation assay (Amplex Red assay); settings: potency range class
How it was run: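 Human MPO at 200 pM with 40 nM H2O2 preincubated 10 min at room temperature with inhibitor in 100 mM KPi pH 7.4. Reaction started with Amplex Red mixture (200 μM Amplex Red, 10 mM H2O2); resorufin fluorescence (Ex 535, Em 590 nm) read kinetically for 15 min. IC50 fitted from slopes over 180-540 s.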

[2] = target: eosinophil peroxidase (EPX) (Homo sapiens (Human), UniProt P11678); assay: EPX bromination assay
Chain of eosinophil peroxidase (EPX) (P11678 140-715): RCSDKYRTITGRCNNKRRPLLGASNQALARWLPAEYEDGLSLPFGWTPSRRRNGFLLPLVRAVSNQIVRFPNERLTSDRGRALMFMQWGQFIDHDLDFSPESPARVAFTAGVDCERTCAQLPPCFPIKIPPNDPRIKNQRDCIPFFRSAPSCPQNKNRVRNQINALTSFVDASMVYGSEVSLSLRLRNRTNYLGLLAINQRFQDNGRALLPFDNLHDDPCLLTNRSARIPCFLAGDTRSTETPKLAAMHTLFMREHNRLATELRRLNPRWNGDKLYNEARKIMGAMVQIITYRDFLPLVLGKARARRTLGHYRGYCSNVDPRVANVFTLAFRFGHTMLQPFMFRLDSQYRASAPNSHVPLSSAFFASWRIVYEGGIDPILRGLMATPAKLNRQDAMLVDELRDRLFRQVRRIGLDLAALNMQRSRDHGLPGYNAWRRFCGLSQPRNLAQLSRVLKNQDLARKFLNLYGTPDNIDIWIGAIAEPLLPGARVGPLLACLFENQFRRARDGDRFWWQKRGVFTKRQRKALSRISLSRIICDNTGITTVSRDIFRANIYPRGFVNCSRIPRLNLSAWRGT
Protocol: [formula] where A=minimal Y value (activity level of inhibited sample), B=maximal Y value (activity level of uninhibited sample), C=Log IC50, D=Hill Slope, x=concentration of inhibitor. EPX Bromination Assay
EPX bromination activity was measured in 100 mM KPi (pH 7.4) by monitoring the H2O2 catalyzed formation of 3-bromo tyrosine from tyrosine and potassium bromide. A 50 μl mixture of 0.6 μM EPX (Lee Biosolutions Cat. #342-60) was added to 100 nL inhibitor in 100% DMSO in a 384 well REMP plate. Enzyme and compound were preincubated for ten minutes at room temperature.
After the ten minute preincubation of enzyme and inhibitor, 25 μL of a mixture containing 400 μM tyrosine and 1200 μM potassium bromide was added to the plate containing enzyme and inhibitor, followed by the addition of 25 μl of 20 μM H2O2. The reaction was allowed to proceed for 15 minutes, at which time it was quenched with 10 μL of 20% TCA. The final concentrations of all components were 0.3 μM EPX, 100 μM tyrosine, […], 5 μM H2O2, 0.1% DMSO, 2.0% TCA.
IC50 values were determined by determining the peak areas of 3-bromotyrosine present at the end of the 15 minute reaction and fitting the data to:
[formula] where A=minimal Y value (activity level of inhibited sample), B=maximal Y value (activity level of uninhibited sample), C=Log IC50, D=Hill Slope, x=concentration of inhibitor.
Reversed-phase analysis was performed on a Waters Acquity Ultra Performance LC system using an Acquity UPLC BEH C18 […], 2.1×50 mm analytical column. The column was maintained at 60° C. Samples were eluted using a gradient of 0%-100% B over 2.5 minutes, followed by equilibration with 100% A for 1 minute where A consisted of 0.1% TFA and B consisted of 90% MeOH/0.1% TFA at a flow rate of 0.6 mL/min. The retention time of 3-bromo tyrosine was 1.22 min (Method A).

myeloperoxidase (MPO) [3] = target: T1, myeloperoxidase (MPO); assay: MPO chlorination assay (APF assay); settings: potency range class
How it was run: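 Human MPO (200 pM) preincubated 10 min at room temperature with inhibitor and 120 mM NaCl in 100 mM KPi pH 7.4. Reaction started with APF plus 10 μM H2O2, and hypochlorite-generated fluorescein read kinetically (ex 485/em 535 nm) for 3 min. IC50 from linear-phase slopes fitted to a four-parameter equation.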

T1 sequence (P05164 49-745): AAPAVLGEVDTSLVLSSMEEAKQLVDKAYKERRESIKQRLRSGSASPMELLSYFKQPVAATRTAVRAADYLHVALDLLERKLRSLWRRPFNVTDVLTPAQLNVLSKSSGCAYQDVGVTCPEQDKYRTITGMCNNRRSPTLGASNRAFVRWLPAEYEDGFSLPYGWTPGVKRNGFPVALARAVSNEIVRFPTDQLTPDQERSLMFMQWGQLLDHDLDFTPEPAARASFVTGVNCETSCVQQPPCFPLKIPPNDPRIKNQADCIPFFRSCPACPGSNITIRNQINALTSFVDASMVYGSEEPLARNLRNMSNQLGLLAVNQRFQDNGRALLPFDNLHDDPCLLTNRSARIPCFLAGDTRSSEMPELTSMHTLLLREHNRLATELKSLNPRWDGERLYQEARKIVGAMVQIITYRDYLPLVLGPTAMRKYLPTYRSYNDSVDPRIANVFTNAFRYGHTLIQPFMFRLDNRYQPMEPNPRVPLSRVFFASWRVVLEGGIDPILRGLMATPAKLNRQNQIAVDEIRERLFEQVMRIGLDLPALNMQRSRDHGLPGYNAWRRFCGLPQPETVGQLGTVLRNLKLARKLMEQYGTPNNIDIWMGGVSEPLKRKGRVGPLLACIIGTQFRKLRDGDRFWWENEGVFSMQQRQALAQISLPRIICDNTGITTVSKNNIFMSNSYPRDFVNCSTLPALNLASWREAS

IC50 (myeloperoxidase (MPO) [1]) [nM] | IC50 [2] [nM] | IC50 (myeloperoxidase (MPO) [3]) [nM] | Compound
1 to 100 | 19 | 1 to 100 | Nc1cc(Cc2cnn(-c3ccc(F)cc3)c2)c2nn[nH]c2n1 [Example 1, 7-((1-(4-Fluorophenyl)-1H-pyrazol-4-yl)methyl)-3H-[1,2,3]triazolo[4,5-b]pyridin-5-amine]
1 to 100 | 30 | 101 to 999 | Nc1cc(Cc2cnn(Cc3ccccc3)c2)c2nn[nH]c2n1 [Example 34, 7-((1-Benzyl-1H-pyrazol-4-yl)methyl)-3H-[1,2,3]triazolo[4,5-b]pyridin-5-amine]
1 to 100 | 20 | 101 to 999 | Nc1cc(Cc2cn(Cc3ccccc3)nn2)c2nn[nH]c2n1 [Example 52, 7-((1-Benzyl-1H-1,2,3-triazol-4-yl)methyl)-3H-[1,2,3]triazolo[4,5-b]pyridin-5-amine]
1 to 100 | 32 | – | Nc1cc(Cc2cnn(C3CCC3)c2)c2nn[nH]c2n1 [Example 53, 7-((1-Cyclobutyl-1H-pyrazol-4-yl)methyl)-3H-[1,2,3]triazolo[4,5-b]pyridin-5-amine]
1 to 100 | 8 | 1 to 100 | Nc1cc(Cc2cnn(Cc3ccc4c(c3)CCNC4)c2)c2nn[nH]c2n1 [Example 130, 7-((1-((1,2,3,4-Tetrahydroisoquinolin-6-yl)methyl)-1H-pyrazol-4-yl)methyl)-3H-[1,2,3]triazolo[4,5-b]pyridin-5-amine]
1 to 100 | – | 1000 to 10000 | COc1ccc(CN2CCc3ccc(Cn4cc(Cc5cc(N)nc6[nH]nnc56)cn4)cc3C2=O)cc1 [Example 287, 7-{[4-({5-Amino-3H-[1,2,3]triazolo[4,5-b]pyridin-7-yl}methyl)-1H-pyrazol-1-yl]methyl}-2-[(4-methoxyphenyl)methyl]-1,2,3,4-tetrahydroisoquinolin-1-one]

The next lines start with the molecule.

Compound | IC50 (myeloperoxidase (MPO) [1]) [nM] | IC50 [2] [nM] | IC50 (myeloperoxidase (MPO) [3]) [nM]
Nc1cc(Cc2cnn(-c3ccccc3)c2)c2nn[nH]c2n1 [Example 5, 7-((1-Phenyl-1H-pyrazol-4-yl)methyl)-3H-[1,2,3]triazolo[4,5-b]pyridin-5-amine] | 1 to 100 | 11 | 1 to 100
Nc1cc(Cc2cnn(Cc3ccc(CNC4CC4)cc3)c2)c2nn[nH]c2n1 [Example 185, 7-{[1-({4-[(Cyclopropylamino)methyl]phenyl}methyl)-1H-pyrazol-4-yl]methyl}-3H-[1,2,3]triazolo[4,5-b]pyridin-5-amine] | 1 to 100 | 45 | 101 to 999
Nc1cc(Cc2cnn(Cc3cccc(C4CCNC4)c3)c2)c2nn[nH]c2n1 (stereo not drawn) [Example 187, 7-[(1-{[3-(Pyrrolidin-3-yl)phenyl]methyl}-1H-pyrazol-4-yl)methyl]-3H-[1,2,3]triazolo[4,5-b]pyridin-5-amine] | 1 to 100 | 21 | 1 to 100
Nc1cc(Cc2cnn(Cc3ccc4c(c3)C(F)(F)CNC4)c2)c2nn[nH]c2n1 [Example 260, 7-({1-[(4,4-Difluoro-1,2,3,4-tetrahydroisoquinolin-6-yl)methyl]-1H-pyrazol-4-yl}methyl)-3H-[1,2,3]triazolo[4,5-b]pyridin-5-amine] | 1 to 100 | 114 | 101 to 999
Nc1cc(Cc2cn(Cc3cccc(C4CCNCC4)c3)nc2C(F)F)c2nn[nH]c2n1 [Example 286, 7-{[3-(Difluoromethyl)-1-{[3-(piperidin-4-yl)phenyl]methyl}-1H-pyrazol-4-yl]methyl}-3H-[1,2,3]triazolo[4,5-b]pyridin-5-amine] | 101 to 999 | – | 101 to 999
